Measured values as given in PubChem BioAssay (NCI).
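Interpolation was linear, between the two tested concentrations surrounding the appropriate level; five concentrations were tested over 48 hours in 96-well plates. GI50: concentration for 50% inhibition of growth. The concentration for full growth arrest is given as TGI.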

Tests used:
Assay in all cases: growth of human tumour cells (NCI), 48 h; in the data active means GI50 below about 0.43 µM; inactive means the rest
UACC-62 melanoma = tested on: UACC-62 melanoma
SF-268 CNS = tested on: SF-268 CNS
SR leukemia = tested on: SR leukemia
KM12 colon = tested on: KM12 colon
RPMI-8226 leukemia = tested on: RPMI-8226 leukemia
A549 NSCLC = tested on: A549 NSCLC
UACC-257 melanoma = tested on: UACC-257 melanoma
HOP-92 NSCLC = tested on: HOP-92 NSCLC
HCC-2998 colon = tested on: HCC-2998 colon

O=C1Nc2ccc(Cl)cc2/C1=N/c1nc(-c2ccc(Cl)cc2)cs1
4.41 µM: TGI (SF-268 CNS)
4.55 µM: TGI (KM12 colon)
4.1 µM: TGI (UACC-62 melanoma)
> 100 µM: TGI (SR leukemia)
inactive: GI50 (UACC-62 melanoma) 1.54 µM | GI50 (SF-268 CNS) 1.29 µM | GI50 (SR leukemia) 2.74 µM | GI50 (KM12 colon) 1.37 µM

CC(C)(C)c1ccc(OCCOCCOc2ccc(C(C)(C)C)cc2S(N)(=O)=O)c(S(N)(=O)=O)c1
> 100 µM: TGI (UACC-62 melanoma) | TGI (SF-268 CNS) | TGI (KM12 colon) | TGI (RPMI-8226 leukemia) | TGI (A549 NSCLC) | TGI (UACC-257 melanoma) | TGI (HOP-92 NSCLC) | TGI (HCC-2998 colon)

O=C(/C=C(\[O-])c1ccccc1)CCCCCCC(=O)/C=C(\[O-])c1ccccc1.O=C(/C=C(\[O-])c1ccccc1)CCCCCCC(=O)/C=C(\[O-])c1ccccc1.O=C(/C=C(\[O-])c1ccccc1)CCCCCCC(=O)/C=C(\[O-])c1ccccc1.[Y+3].[Y+3]
> 50 µM: TGI (UACC-62 melanoma) | TGI (SF-268 CNS) | TGI (KM12 colon) | TGI (RPMI-8226 leukemia) | TGI (A549 NSCLC) | TGI (UACC-257 melanoma) | TGI (HOP-92 NSCLC) | TGI (HCC-2998 colon)
inactive: GI50 (UACC-62 melanoma) 47.5 µM | GI50 (SF-268 CNS) 41.5 µM | GI50 (KM12 colon) > 50 µM | GI50 (RPMI-8226 leukemia) 44.8 µM | GI50 (A549 NSCLC) > 50 µM | GI50 (UACC-257 melanoma) 17.6 µM | GI50 (HOP-92 NSCLC) 17 µM | GI50 (HCC-2998 colon) > 50 µM

CCCCC(C(=O)C(=O)Nc1ccccc1CC)C(=O)C(C)C (stereo unspecified)
> 100 µM: TGI (UACC-62 melanoma) | TGI (SF-268 CNS) | TGI (KM12 colon) | TGI (RPMI-8226 leukemia) | TGI (A549 NSCLC) | TGI (UACC-257 melanoma) | TGI (HOP-92 NSCLC) | TGI (HCC-2998 colon)

CN(C)c1ccc(/C=c2/sc3nc(=O)c(-c4ccccc4NC(=O)C(F)(F)F)nn3c2=O)cc1
> 100 µM: TGI (UACC-62 melanoma) | TGI (SF-268 CNS) | TGI (SR leukemia) | TGI (KM12 colon) | TGI (A549 NSCLC) | TGI (HOP-92 NSCLC) | TGI (HCC-2998 colon)

O=C1c2ccccc2C2(O)N(c3ccccc3)C(=S)N(c3ccccc3)C12O (stereo unspecified)
> 100 µM: TGI (UACC-62 melanoma) | TGI (SF-268 CNS) | TGI (KM12 colon) | TGI (RPMI-8226 leukemia) | TGI (A549 NSCLC) | TGI (UACC-257 melanoma) | TGI (HCC-2998 colon)

C/C(=C\c1ccccc1)C(O)C(=O)c1nc2ccc(Cl)cc2[nH]c1=O (stereo unspecified)
> 100 µM: TGI (UACC-62 melanoma) | TGI (SF-268 CNS) | TGI (SR leukemia) | TGI (KM12 colon) | TGI (RPMI-8226 leukemia) | TGI (A549 NSCLC) | TGI (UACC-257 melanoma) | TGI (HCC-2998 colon)

O=[N+]([O-])c1ccc(/C=C/c2ccc(/C=C/c3ccc([N+](=O)[O-])cc3[N+](=O)[O-])cc2)c([N+](=O)[O-])c1
> 100 µM: TGI (UACC-62 melanoma) | TGI (KM12 colon) | TGI (RPMI-8226 leukemia) | TGI (A549 NSCLC) | TGI (UACC-257 melanoma) | TGI (HCC-2998 colon)

O=C(O)c1cn(C2CC2)c2cc(N3CCN(C(=O)N(c4ccccc4)c4nc(-c5ccccc5)cs4)CC3)c(F)cc2c1=O
0.948 µM: TGI (HOP-92 NSCLC)
> 100 µM: TGI (SF-268 CNS) | TGI (KM12 colon) | TGI (A549 NSCLC) | TGI (HCC-2998 colon)
active: GI50 (SF-268 CNS) 0.389 µM | GI50 (KM12 colon) 0.369 µM | GI50 (A549 NSCLC) 0.3 µM | GI50 (HOP-92 NSCLC) 0.241 µM
inactive: GI50 (HCC-2998 colon) 0.595 µM

Cc1ccccc1NC(=O)C1C(=O)N(c2ccccc2C)C(=O)/C1=N\NC(N)=O (stereo unspecified)
> 100 µM: TGI (UACC-62 melanoma) | TGI (SF-268 CNS) | TGI (SR leukemia) | TGI (KM12 colon) | TGI (A549 NSCLC) | TGI (UACC-257 melanoma) | TGI (HOP-92 NSCLC) | TGI (HCC-2998 colon)

COc1cc2c(Oc3ccc(-c4cnc(Nc5ccc(F)cc5)n(C)c4=O)cc3F)ccnc2cc1OCCCN1CCOCC1
3.42 µM: TGI (A549 NSCLC)
1.01 µM: TGI (HOP-92 NSCLC)
4.71 µM: TGI (RPMI-8226 leukemia)
active: GI50 (HOP-92 NSCLC) 0.083 µM
3.38 µM: TGI (SF-268 CNS)
inactive: GI50 (SF-268 CNS) 1.46 µM | GI50 (RPMI-8226 leukemia) 1.84 µM | GI50 (A549 NSCLC) 1.66 µM | GI50 (UACC-257 melanoma) 1.1 µM | GI50 (HCC-2998 colon) 1.48 µM
2.6 µM: TGI (UACC-257 melanoma)
2.94 µM: TGI (HCC-2998 colon)

N#Cc1c(CC(=O)O)cc(=O)n2c1[nH]c1ccccc12
> 100 µM: TGI (SF-268 CNS) | TGI (SR leukemia) | TGI (KM12 colon) | TGI (RPMI-8226 leukemia) | TGI (A549 NSCLC) | TGI (UACC-257 melanoma) | TGI (HCC-2998 colon)

O=C(CC1(O)C(=O)Nc2c(Cl)ccc(Cl)c21)c1ccc(Cl)cc1 (stereo unspecified)
55.1 µM: TGI (RPMI-8226 leukemia)
48.9 µM: TGI (UACC-62 melanoma)
78 µM: TGI (KM12 colon)
93.9 µM: TGI (HOP-92 NSCLC)
94.7 µM: TGI (UACC-257 melanoma)
> 100 µM: TGI (A549 NSCLC)
94 µM: TGI (SF-268 CNS)
71 µM: TGI (HCC-2998 colon)

Cc1ccccc1NC(=O)CC(=O)NNCC(=O)Nc1nnc(-c2ccccc2)s1
> 100 µM: TGI (UACC-62 melanoma) | TGI (SF-268 CNS) | TGI (SR leukemia) | TGI (KM12 colon) | TGI (A549 NSCLC) | TGI (UACC-257 melanoma) | TGI (HCC-2998 colon)
75.1 µM: TGI (RPMI-8226 leukemia)

Nc1ccccc1C(=O)/C=C/c1ccccc1O
> 100 µM: TGI (UACC-62 melanoma) | TGI (SF-268 CNS) | TGI (KM12 colon) | TGI (A549 NSCLC) | TGI (HCC-2998 colon)
53 µM: TGI (UACC-257 melanoma)
78.4 µM: TGI (RPMI-8226 leukemia)
81.6 µM: TGI (HOP-92 NSCLC)

CN(C)[C@@H]1C(=O)C(C(=O)NCc2nc3[nH]cnc(=S)c3[nH]2)=C(O)[C@@]2(O)C(=O)C3=C(O)c4c(O)cccc4[C@@](C)(O)[C@H]3C[C@@H]12
> 100 µM: TGI (UACC-62 melanoma) | TGI (SR leukemia) | TGI (KM12 colon) | TGI (RPMI-8226 leukemia) | TGI (A549 NSCLC) | TGI (UACC-257 melanoma) | TGI (HCC-2998 colon)
inactive: GI50 (UACC-62 melanoma) 2.91 µM | GI50 (SR leukemia) 1.92 µM | GI50 (KM12 colon) 5.01 µM | GI50 (RPMI-8226 leukemia) 4.35 µM | GI50 (A549 NSCLC) > 100 µM | GI50 (UACC-257 melanoma) > 100 µM | GI50 (HCC-2998 colon) 5.09 µM

CC(=O)NC(CCCNC(=O)OCc1ccccc1)C(=O)NCc1ccccc1 (stereo unspecified)
> 100 µM: TGI (UACC-62 melanoma) | TGI (SF-268 CNS) | TGI (KM12 colon) | TGI (RPMI-8226 leukemia) | TGI (A549 NSCLC) | TGI (UACC-257 melanoma) | TGI (HOP-92 NSCLC) | TGI (HCC-2998 colon)
